Reference: patent publication US11491161B2, “Methods and compositions for treatment of pulmonary hypertension and other lung disorders” (Respira Therapeutics, Inc., priority 2016, dated 2022)
Counter-ions that a name gives are not always drawn.

Key:
[1] = particle size distribution of micronized drug substance by laser diffraction; assay type: physicochemical; conditions: hydrochloride trihydrate
Source text: The coarse drug substance as received was forced into the milling chamber by a compressed air stream, through a Venturi tube with a higher pressure (P_vent) and metered into the mill at the desired rate (F-feed). Nitrogen was used as grinding gas and adjusted to the desired pressure (P_grind) to mill the drug particles. The micronized material was characterized for process yield gravimetrically, particle size distribution (PSD) by laser diffraction (Malvern Masersizer) and moisture content by Karl Fischer (KF) analysis. A finer micronized drug substance PSD as evidenced with smaller volume weighted median diameter (Dv50=1.8 μm) and linear interpolated size of the 90th percentile (Dv90=4.5 μm) was obtained using higher Venturi (P_Vent=7.5 bar) and grinding pressures (P_Grind=6 bar) as compared with a batch with a slightly coarser PSD of […] when using the jet mill operated at lower pressures (ca. P_Vent=5.5 bar and P_Grind=4.5 bar) (Table 1).

plasma proteins = conditions: cited from earlier work
[2] = octanol-water partition coefficient; cited from earlier work
[3] = in vivo; cited from earlier work
PDE5 enzyme = PDE5 enzyme (Homo sapiens, UniProt O76074); conditions: cited from earlier work
[4] = in vivo; cited from earlier work; remark: listed apart in the source
human patients with PAH = conditions: 5 mg orally twice per day (b.i.d.); cited from earlier work
[5] = inhaled, following pulmonary administration; peak at first time-point tested; cited from earlier work

| Compound | protein binding in the systemic circuit (plasma proteins) | log P [2] | half-life at the catalytic site on the PDE enzyme (PDE5 enzyme) | further results |
| --- | --- | --- | --- | --- |
| CCCc1nc(C)c2c(=O)[nH]c(-c3cc(S(=O)(=O)N4CCN(CC)CC4)ccc3OCC)nn12 [Batch 1, vardenafil hydrochloride trihydrate] | – | – | – | PSD by Laser diffraction Dv10 [1]: 0.5 μm; PSD by Laser diffraction Dv50 [1]: 1.8 μm; PSD by Laser diffraction Dv90 [1]: 4.5 μm; PSD by Laser diffraction Span [1]: 2.2 |
| CCCc1nc(C)c2c(=O)[nH]c(-c3cc(S(=O)(=O)N4CCN(CC)CC4)ccc3OCC)nn12 [Batch 2, vardenafil hydrochloride trihydrate] | – | – | – | PSD by Laser diffraction Dv10 [1]: 0.7 μm; PSD by Laser diffraction Dv50 [1]: 2.9 μm; PSD by Laser diffraction Dv90 [1]: 5.5 μm; PSD by Laser diffraction Span [1]: 1.7 |
| COc1ccc(CN=c2[nH]c(N3CCC[C@H]3CO)ncc2C(=O)NCc2ncccn2)cc1Cl [avanafil, (S)-4-[(3-chloro-4-methoxybenzyl)amino]-2-[2-(hydroxymethyl)-1-pyrrolidinyl]-N-(2-pyrimidinylmethyl)-5-pyrimidinecarboxamide] | 99% | 2.6 | – | – |
| COc1ccccc1Oc1c(NS(=O)(=O)c2ccc(C(C)(C)C)cc2)nc(-c2ncccn2)nc1OCCO [bosentan] | 98% | 3.7 | – | – |
| CCCCC[C@H](O)/C=C/[C@@H]1[C@H]2C/C(=C/CCCC(=O)O)O[C@H]2C[C@H]1O [epoprostenol, (5Z,9α,11α,13E,15S)-6,9-epoxy-11,15-dihydroxyprosta-5,13-dien-1-oic acid] | – | 2.9 | – | – |
| CC#CCC(C)[C@H](O)/C=C/[C@@H]1[C@H]2C/C(=C/CCCC(=O)O)C[C@H]2C[C@H]1O (stereo partly drawn) [iloprost, (E)-(3aS, 4R, 5R, 6aS)-hexahydro-5-hydroxy-4-[(E)-(3S,4RS)-3-hydroxy-4-methyl-1-octen-6-ynyl]-Δ^2(1H),Δ-pentalenevaleric acid] | – | 4.8 | – | duration of action [3]: about 30 min |
| CCCc1nn(C)c2c(=O)[nH]c(-c3cc(S(=O)(=O)N4CCN(C)CC4)ccc3OCC)nc12 [sildenafil, 1-[[3-(6,7-dihydro-1-methyl-7-oxo-3-propyl-1H-pyrazolo[4,3-d]pyrimidin-5-yl)-4-ethoxyphenyl]sulfonyl]-4-methylpiperazine] | 96% | – | 3 min | – |
| CN1CC(=O)N2[C@H](c3ccc4c(c3)OCO4)c3[nH]c4ccccc4c3C[C@@H]2C1=O [tadalafil, (6R,12aR)-2,3,6,7,12,12a-hexahydro-2-methyl-6-(1,3-benzodioxol-5-yl)-pyrazino[1′,2′:1,6]pyrido[3,4-b]indole-1,4-dione] | 94% | – | 7 min | – |
| CCCCC[C@H](O)CC[C@@H]1[C@H]2Cc3cccc(OCC(=O)O)c3C[C@H]2C[C@H]1O [treprostinil, (1R,2R,3aS,9aS)-[[2,3,3a,4,9,9a-hexahydro-2-hydroxy-1-[(3S)-3-hydroxyoctyl]-1H-benz[f]inden-5-yl]oxy]acetic acid] | – | 4.1 | – | oral bioavailability [4]: 18% |
| CCCc1nc(C)c2c(=O)nc(-c3cc(S(=O)(=O)N4CCN(CC)CC4)ccc3OCC)[nH]n12 [vardenafil, 1-[[3-(1,4-dihydro-5-methyl-4-oxo-7-propylimidazo[5,1-f][1,2,4]triazin-2-yl)-4-ethoxyphenyl]sulfonyl]-4-ethyl-piperazine] | 93-95% | – | about 2 hr | safety and efficacy in PAH (human patients with PAH): safe and effective; tmax [5]: ≤ 2 min |
